The values that follow come from patent US20070112061A1, “Heat- or singlet oxygen-generating agents and cancer treatment compositions comprising organic peroxide or chemiluminescent compound” (priority 2004, published 2007).

The nature of data set [1]: Solid-state reaction heat by differential thermal analyzer (DSC-50). It is filed as physicochemical. As to conditions: for Solid reaction heat: solid state, heated to 80-180° C. The method, then: (§1) Measurement of reaction heat: heat generated by above-mentioned compounds was measured by a differential thermal analyzer.
Heat measurement of a chemiluminescent system peroxide in the solid state was conducted using a differential thermal analyzer as follows: 2 to 3 mg of the peroxide was weighed, filled into an aluminum capsule, and heated gradually to 80-180° C. by DSC-50 (Shimadzu Corporation) to measure the generated heat.
Measurement of reaction heat: heat generated from above-mentioned compounds was measured by the differential thermal analyzer in accordance with above-mentioned [Measurement I]. Thermal measurement of a dioxetane compound in the solid state was carried out as follows: 2 to 3 mg of the dioxetane compound was weighed, filled into an aluminum capsule, and heated gradually to 80-180° C. by DSC-50 (Shimadzu Corporation) to measure the generated heat.

Data set [2] in a line: Solution reaction heat of chemiluminescent reaction started with 1N KOH/MeOH. The format is physicochemical. The method, then:
Reaction heat and chemiluminescent efficiency relating to chemiluminescent reaction of the peroxides (Chemical formula A to Chemical formula L) were measured. Further, the amount of imidazole formed that indicates generation efficiency of singlet oxygen generated by this reaction was measured.
as §1

Data set [3] concerns established cell line from human large intestine cancer. The experiment in a line: MTT cytotoxicity assay (anticancer effect). It is filed as cell-based. As to conditions: for Survival rate of cells: 100 μM, MTT assay; for Survival rate of cancer cells / viability at 1 µM / viability at 10 µM / viability at 100 µM: 48 hours incubation; for viability at 1 µM / viability at 10 µM / viability at 100 µM: Homo sapiens, read-out: Survival rate of cancer cells; for anticancer effect compared to MMC: concentration of 100 μM/L. The method, then:
Cytotoxicity was determined as shown below using MTT method proposed by Mosmann et al. (Mosmann, T.; Rapid colorimetric assay for cellular growth and survival: application proliferation and cytotoxicity assays. J. Immunol. Meth. 65: 55-63, 1983). An established cell line from human large intestine cancer was adjusted on a 10% FCS-containing RPMI 1640 culture solution to have 5×10^3 cells/[…], plated in a 96-well microplate, and incubated for 48 hours. Then, the resultant was added with […] of a peroxide, and incubated under a 5% CO2 condition at 37° C. for 48 hours to determine cytotoxicity by MTT assay^1. MTT assay: Upon completion of the incubation, […] of MTT reagent (5 mg/ml in PBS) was added to each well, and then the formazan left on the bottom of the plate was added with 0.04N HCl to dissolve in isopropanol. OD was measured at a test wavelength and at a reference wavelength of 630 nm.
Survival rate in percentage was calculated by the following equation: Survival rate=(OD test value/OD reference value)×100 (%)
A general note: Formazan colour is commonly taken as a measure of viable cells.

`CC(C)(C)[Si](C)(C)OOC1(c2ccccc2)N=C(c2ccc(C3=NC(OO[Si](C)(C)C(C)(C)C)(c4ccccc4)C(c4ccccc4)=N3)cc2)N=C1c1ccccc1` (centres unmarked) [Chemical formula P] registered a generation heat in data set [1] of 147 kcal/mol.
The compound `Cc1cc(C)c(C2=NC(OO)(c3ccccc3)C(c3ccccc3)=N2)c(C)c1` (centres unmarked) [Chemical formula L, 4-Hydroperoxy-2-(2′,4′,6′-trimethylphenyl)-4,5-diphenyl-4H-isoimidazole] came in with a Solid reaction heat in data set [1] (peroxides) of 50.5 kcal/mol. The “Solution Reaction heat” value in data set [2] amounted to 54.0 kcal/mol.
For `COc1ccc(C2(OC)OOC23C2CC4CC(C2)CC3C4)cc1` (centres unmarked) [Chemical formula M, 3-(2′-Spiroadamantane)-4-methoxy-4-(4″-methoxy)phenyl-1,2-dioxetane], the Solid reaction heat in data set [1] (dioxetanes) stood at 68.8 kcal/mol. Also, in data set [3], the “Survival rate of cells” value is 55%.
Consider `CO[C@@]12[C@H](COC(N)=O)C3=C(C(=O)C(C)=C(N)C3=O)N1C[C@@H]1N[C@@H]12` [MMC, mitomycin C, reference compound], for which the entries for the “Survival rate of cancer cells” value in data set [3] (anticancer agent 1 μM/ml), in data set [3] (anticancer agent 10 μM/ml) and in data set [3] (anticancer agent 100 μM/ml) were 65.0%, 28.0% and 14.5%, respectively.
With `Nc1ccc(C2=NC(OO)(c3ccccc3)C(c3ccccc3)=N2)cc1` (centres unmarked) [Chemical formula H, 2-(4-Aminophenyl)-4-hydroperoxy-4,5-diphenyl-4H-isoimidazole], in data set [1] (peroxides), the Solid reaction heat turned out to be 35.3 kcal/mol. In data set [3] (anticancer agent 1 μM/ml), the viability at 1 µM amounted to 100%. The viability at 10 µM in data set [3] (anticancer agent 10 μM/ml) was 97.5%. The viability at 100 µM in data set [3] (anticancer agent 100 μM/ml) is 87.4%. Further, in data set [2], the “Solution Reaction heat” value is given as 46.0 kcal/mol.
With `OOC1(c2ccccc2)N=C(c2cccc(O)c2)N=C1c1ccccc1` (centres unmarked) [Chemical formula D], the Solid reaction heat in data set [1] (peroxides) was 47.6 kcal/mol. Further, the viability at 1 µM in data set [3] (anticancer agent 1 μM/ml) was 93.3%. Besides, the viability at 10 µM in data set [3] (anticancer agent 10 μM/ml) stood at 92.2%. In data set [3] (anticancer agent 100 μM/ml), the viability at 100 µM stood at 71.2%.
In general, melting point refers to the temperature of the solid-liquid transition. For the compound `OOC1(c2ccccc2)N=C(c2ccccc2)N=C1c1ccccc1` (centres unmarked) [Chemical formula A, 4-Hydroperoxy-2,4,5-triphenyl-4H-isoimidazole], the melting point was 108 to 110 °C (dec.). Moreover, in data set [1] (peroxides), the Solid reaction heat was determined as 18.7 kcal/mol. Further, in data set [3] (anticancer agent 1 μM/ml), the viability at 1 µM worked out at 100%. Also, the viability at 10 µM in data set [3] (anticancer agent 10 μM/ml) stood at 100%. Besides, the viability at 100 µM in data set [3] (anticancer agent 100 μM/ml) amounted to 78.3%. For the same compound, the “Solution Reaction heat” value in data set [2] was determined as 53.8 kcal/mol.
Consider `OOC1(c2cccc(O)c2)N=C(c2ccccc2)N=C1c1cccc(O)c1` (centres unmarked) [Chemical formula F, 4-Hydroperoxy-4,5-bis(3-hydroxyphenyl)-2-phenyl-4H-isoimidazole], for which the viability at 10 µM in data set [3] (anticancer agent 10 μM/ml) amounted to 87.4%. Besides, the viability at 100 µM in data set [3] (anticancer agent 100 μM/ml) stood at 42.2%.
In turn, `O=Cc1ccc(C2=NC(OO)(c3ccccc3)C(c3ccccc3)=N2)cc1` (centres unmarked) [Chemical formula K, 2-(4-Formylphenyl)-4-hydroperoxy-4,5-diphenyl-4H-isoimidazole] registered a Solid reaction heat in data set [1] (peroxides) of 15.0 kcal/mol. Moreover, in data set [2], the “Solution Reaction heat” value worked out at 22.4 kcal/mol.
Compound `CC(C)(C)[Si](C)(C)OOC1(c2ccccc2)N=C(c2ccccc2)N=C1c1ccccc1` (centres unmarked) [Chemical formula I, 4-t-Butyldimethylsilylperoxy-2,4,5-triphenyl-4H-isoimidazole] returned a melting point of 93.5 to 96 °C. In data set [1] (peroxides), the Solid reaction heat came out at 91.4 kcal/mol. Also, the viability at 1 µM in data set [3] (anticancer agent 1 μM/ml) amounted to 97.2%. Further, in data set [3] (anticancer agent 10 μM/ml), the viability at 10 µM is 95.9%. Moreover, the viability at 100 µM in data set [3] (anticancer agent 100 μM/ml) worked out at 60.6%.
The compound `OOC1(c2ccccc2)N=C(c2cccc(C3=NC(OO)(c4ccccc4)C(c4ccccc4)=N3)c2)N=C1c1ccccc1` (centres unmarked) [Chemical formula Q] displayed a generation heat in data set [1] of 30.5 kcal/mol.
On the same count and under the same terms, the result for `OOC1(c2ccccc2)N=C(c2ccc(C3=NC(OO)(c4ccccc4)C(c4ccccc4)=N3)cc2)N=C1c1ccccc1` (centres unmarked) [Chemical formula O] reads 47.1 kcal/mol.
Compound `O=[N+]([O-])c1ccc(C2=NC(OO)(c3ccccc3)C(c3ccccc3)=N2)cc1` (centres unmarked) [Chemical formula J] registered a Solid reaction heat in data set [1] (peroxides) of 52.3 kcal/mol. In addition, the “Solution Reaction heat” value in data set [2] was 48.7 kcal/mol.
As to `COc1cccc(C2(OC)OOC23C2CC4CC(C2)CC3C4)c1` (centres unmarked) [Chemical formula N, 3-(2′-Spiroadamantane)-4-methoxy-4-(3″-methoxy)phenyl-1,2-dioxetane], the Solid reaction heat in data set [1] (dioxetanes) is listed as 66.8 kcal/mol. Besides, in data set [3], the “Survival rate of cells” value was found to be 67%.
Consider `OOC1(c2ccccc2)N=C(c2ccccc2O)N=C1c1ccccc1` (centres unmarked) [Chemical formula E, 4-Hydroperoxy-2-(2-hydroxyphenyl)-4,5-diphenyl-4H-isoimidazole], for which the viability at 10 µM in data set [3] (anticancer agent 10 μM/ml) amounted to 88.1%. Also, the viability at 100 µM in data set [3] (anticancer agent 100 μM/ml) came out at 11.8%. For the same compound, the “anticancer effect compared to MMC” value in data set [3] is recorded as “comparable to the commercially available MMC”.
On to `OOC1(c2ccc3c(c2)OCCOCCOCCOCCO3)N=C(c2ccccc2)N=C1c1ccc2c(c1)OCCOCCOCCOCCO2` (centres unmarked) [Chemical formula G, Bis(crown ether)iophineperoxide], for which the viability at 10 µM in data set [3] (anticancer agent 10 μM/ml) was 87.2%. Moreover, the viability at 100 µM in data set [3] (anticancer agent 100 μM/ml) is 48.2%.
Turning to `CC(C)(C)[Si](C)(C)OOC1(c2ccccc2)N=C(c2cccc(C3=NC(OO[Si](C)(C)C(C)(C)C)(c4ccccc4)C(c4ccccc4)=N3)c2)N=C1c1ccccc1` (centres unmarked) [Chemical formula R], the generation heat in data set [1] was 143 kcal/mol.
As to `OOC1(c2ccccc2)N=C(c2ccc(O)cc2)N=C1c1ccccc1` (centres unmarked) [Chemical formula C, 4-Hydroperoxy-2-(4-hydroxyphenyl)-4,5-diphenyl-4H-imidazole], the melting point was 125 to 127 °C (dec.). In data set [1] (peroxides), this compound gave a Solid reaction heat of 53.6 kcal/mol. The viability at 1 µM in data set [3] (anticancer agent 1 μM/ml) amounted to 91.9%. Also, the viability at 10 µM in data set [3] (anticancer agent 10 μM/ml) is 82.2%. Further, in data set [3] (anticancer agent 100 μM/ml), the viability at 100 µM is 11.1%. The “anticancer effect compared to MMC” value in data set [3] is “comparable to the commercially available MMC”.
Take `CN(C)c1ccc(C2=NC(OO)(c3ccc(F)cc3)C(c3ccc(F)cc3)=N2)cc1` (centres unmarked) [Chemical formula B, 4,5-Bis(4-fluorophenyl)-4-hydroperoxy-2-(4-dimethylaminophenyl)-4H-isoimidazole]: the melting point is 125 to 128 °C (dec.). The compound also displayed a Solid reaction heat in data set [1] (peroxides) of 61.0 kcal/mol. The viability at 1 µM in data set [3] (anticancer agent 1 μM/ml) turned out to be 100%. Moreover, the viability at 10 µM in data set [3] (anticancer agent 10 μM/ml) worked out at 93.7%. The viability at 100 µM in data set [3] (anticancer agent 100 μM/ml) came out at 37%. Moreover, the “Solution Reaction heat” value in data set [2] was determined as 66.3 kcal/mol.
